Key:
Arabidopsis = assay: Resistance to 5-methyl tryptophan (5-MT) of transgenic Arabidopsis overexpressing MYC transcription factors; type: in vivo, Arabidopsis thaliana; settings: for 5-MT resistance: overexpression from the 35S promoter, phyB mutant background, 50 μM 5-methyl-tryptophan, 3 weeks, preliminary results
Method: Functional analysis of these and other MYC^D transcription factors in planta was performed by overexpressing the transcription factors in Arabidopsis with subsequent testing of the resulting transgenic lines for increased resistance to 5-methyl tryptophan (5-MT), a toxic analog of the amino acid tryptophan.

JAZ10.4 = molecular target: T1, JAZ10.4 (Arabidopsis thaliana, UniProt Q93ZM9); assay: Yeast two-hybrid analysis of JAZ10.4 (bait) interaction with wild-type MYC3 and MYC3 point mutants (prey); type: binding; settings: JAZ10.4 bait (CMID, no Jas motif), MYC3 variant prey
T1 construct: expressed in transfected cells; host or cells: yeast (two-hybrid)
T1 sequence (Q93ZM9 1-167 isoform Q93ZM9-3): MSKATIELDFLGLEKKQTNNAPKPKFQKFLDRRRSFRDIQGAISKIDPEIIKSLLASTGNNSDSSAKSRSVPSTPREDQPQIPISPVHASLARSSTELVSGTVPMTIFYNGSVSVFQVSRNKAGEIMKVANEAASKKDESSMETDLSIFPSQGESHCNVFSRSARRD
Method: The structural information from the MYC3-CMID complex was used to generate site-directed mutants of MYC3 that have reduced interaction with the JAZ10.4 splice variant, which contains a CMID but not a Jas motif (Chung and Howe 2009). Several promising mutants were made.
(§1) The interactions of mutants MYC3^L152A and MYC3^E148A/M155A with JAZ10.4 and MED25 was evaluated using yeast two-hybrid analyses to visualize MED25 and JAZ10.4 (bait) interactions with wild-type MYC3 and MYC3 point mutants (prey).

MED25 = molecular target: T2, MED25 (Arabidopsis thaliana, UniProt Q7XYY2); assay: Yeast two-hybrid analysis of MED25 (bait) interaction with wild-type MYC3 and MYC3 point mutants (prey); type: binding; settings: MYC3 variant prey
T2 construct: expressed in transfected cells; host or cells: yeast (two-hybrid)
T2 sequence (Q7XYY2 1-836): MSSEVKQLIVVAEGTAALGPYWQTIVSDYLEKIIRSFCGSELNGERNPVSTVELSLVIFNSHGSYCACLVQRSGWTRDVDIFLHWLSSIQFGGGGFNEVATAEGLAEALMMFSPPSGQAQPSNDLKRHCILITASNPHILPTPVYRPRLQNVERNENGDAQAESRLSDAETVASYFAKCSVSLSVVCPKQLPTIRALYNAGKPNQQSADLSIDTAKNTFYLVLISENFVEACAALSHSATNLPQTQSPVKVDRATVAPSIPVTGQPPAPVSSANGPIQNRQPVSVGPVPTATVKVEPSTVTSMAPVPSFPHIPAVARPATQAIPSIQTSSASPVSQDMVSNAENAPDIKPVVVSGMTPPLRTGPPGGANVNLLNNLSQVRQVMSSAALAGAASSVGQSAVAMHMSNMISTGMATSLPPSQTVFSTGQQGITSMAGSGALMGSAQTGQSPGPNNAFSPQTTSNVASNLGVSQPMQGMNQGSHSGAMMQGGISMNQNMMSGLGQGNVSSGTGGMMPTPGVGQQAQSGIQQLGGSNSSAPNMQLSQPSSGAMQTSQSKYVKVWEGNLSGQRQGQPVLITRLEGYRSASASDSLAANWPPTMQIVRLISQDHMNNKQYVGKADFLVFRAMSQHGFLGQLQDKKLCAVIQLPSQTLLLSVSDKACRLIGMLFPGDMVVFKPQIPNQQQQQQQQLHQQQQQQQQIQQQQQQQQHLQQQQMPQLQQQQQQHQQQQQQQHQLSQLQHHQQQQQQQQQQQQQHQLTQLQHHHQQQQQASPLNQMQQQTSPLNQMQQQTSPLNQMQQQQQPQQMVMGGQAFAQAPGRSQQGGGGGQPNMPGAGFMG
Method: as §1

JAZ proteins = settings: literature (Goossens et al., 2015; Smolen et al., 2002); cited from earlier work
phyB-9 mutant plants = assay: Primary root length in the presence of 15 μM 5-MT, phyB-9 plants overexpressing MYC2 variants; type: in vivo, Arabidopsis thaliana; settings: 14-day-old seedlings, overexpression in phyB-9, normalized to the same genotype without 5-MT
Method: Primary root length in the presence of 15 μM 5-MT was evaluated for 14-day-old seedlings of non-transgenic (NT) phyB-9 mutant plants or phyB-9 mutant plants that overexpressed either wild-type (WT) MYC2 or a MYC2^D105N/E165K mutant allele that harbors two point mutations (D105N and E165K) that prevent JAZ binding. Primary root length was determined as the root length of a given genotype grown in the presence of 15 μM 5-MT normalized to the root length of the same genotype grown in the absence of 5-MT.

**Q.** For “tomato MYC2 D132N: tomato (Solanum lycopersicum) MYC2 protein with SEQ ID NO:19 modified to have a D132N mutation”, which “resistance to 5-MT” value (Arabidopsis; tomato MYC2 variant overexpressed in Arabidopsis, data not shown) is on record?
**A.** confers resistance

**Q.** With MYC3^L152A as the substance, how does the JAZ10.4 interaction (JAZ10.4) read?
**A.** strongly reduced

**Q.** And the MED25 interaction (MED25)?
**A.** still interacted

**Q.** For “MYC3^D94N: dominant MYC3 variant (atr2D allele), Asp-to-Asn missense mutation in the JAZ-interacting domain”, which 5-MT resistance (Arabidopsis) is on record?
**A.** confers 5-MT resistance

**Q.** What about the “interaction with most JAZ proteins” value (JAZ proteins) of the same substance?
**A.** fail to interact

**Q.** For MYC3^E148A/M155A, which JAZ10.4 interaction (JAZ10.4) is on record?
**A.** strongly reduced

**Q.** And the MED25 interaction (MED25)?
**A.** still interacted

**Q.** For “MYC2^D105N/E165K: MYC2 mutant allele that harbors two point mutations (D105N and E165K) that prevent JAZ binding”, which primary root length (phyB-9 mutant plants) is on record?
**A.** best primary root growth

**Q.** Which primary root length (phyB-9 mutant plants) does the source give for “wild type MYC2: Arabidopsis thaliana MYC2 sequence, SEQ ID NO:1 [reference compound]” here?
**A.** improves primary root length

**Q.** Which 5-MT resistance (Arabidopsis) does the source give for “wild-type MYC3: Arabidopsis thaliana MYC3 sequence, SEQ ID NO:3” here?
**A.** not
